Measurements as given in ChEMBL document CHEMBL1201862, “PubChem BioAssay data set” (2004).
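48-hour exposure; five concentrations; linearly interpolated endpoints. Here, GI50 denotes the concentration required for 50% inhibition of growth.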 The source made the active and inactive calls. No stated cut-off is given here; in the data, active = GI50 up to about 1.1 µM and inactive = higher.

Assays:
Assay in all cases: growth of human tumour cells (NCI), 48 h
NCI-H460 = test system: NCI-H460
NCI-H226 = test system: NCI-H226
LOX IMVI = test system: LOX IMVI
EKVX = test system: EKVX
ACHN = test system: ACHN
CCRF-CEM = test system: CCRF-CEM
SF-539 = test system: SF-539
SF-295 = test system: SF-295
SNB-75 = test system: SNB-75
M14 = test system: M14
NCI-H23 = test system: NCI-H23
XF498 = test system: XF498
RXF 631 = test system: RXF 631
IGROV-1 = test system: IGROV-1
DLD-1 = test system: DLD-1
786-0 = test system: 786-0
OVCAR-4 = test system: OVCAR-4
SW-620 = test system: SW-620
HOP-62 = test system: HOP-62
Malme-3M = test system: Malme-3M
HCT-116 = test system: HCT-116
HCT-15 = test system: HCT-15
DMS-114 = test system: DMS-114
HOP-18 = test system: HOP-18
HCC 2998 = test system: HCC 2998
UACC-257 = test system: UACC-257
U-251 = test system: U-251
DMS-273 = test system: DMS-273
SR = test system: SR
SK-MEL-2 = test system: SK-MEL-2
OVCAR-8 = test system: OVCAR-8
A549 = test system: A549
SF-268 = test system: SF-268
UO-31 = test system: UO-31
SN12C = test system: SN12C
HL-60 = test system: HL-60
NCI-H522 = test system: NCI-H522
K562 = test system: K562
RXF 393 = test system: RXF 393
KM12 = test system: KM12
MOLT-4 = test system: MOLT-4
SK-MEL-28 = test system: SK-MEL-28
SK-MEL-5 = test system: SK-MEL-5
UACC-62 = test system: UACC-62
SNB-19 = test system: SNB-19
SK-OV-3 = test system: SK-OV-3
M19-MEL = test system: M19-MEL
COLO 205 = test system: COLO 205
HT-29 = test system: HT-29
A498 = test system: A498
LXFL 529 = test system: LXFL 529
RPMI-8226 = test system: RPMI-8226
TK-10 = test system: TK-10

In the case of CN/C=C(\C(=O)c1ccc(OC)c(OC)c1)c1ccc(OC)cc1, the GI50 (NCI-H460) is reported as 19.2 µM (inactive), the GI50 (NCI-H226) is reported as 11.3 µM (inactive) and the GI50 (LOX IMVI) is reported as 14.2 µM (inactive). For the same compound, the GI50 (EKVX) was 27.4 µM (inactive), the GI50 (ACHN) was 22 µM (inactive) and the GI50 (CCRF-CEM) was 3.85 µM (inactive). For the same compound, the GI50 (SF-539) was 1.25 µM (inactive), the GI50 (SF-295) was 40.1 µM (inactive) and the GI50 (SNB-75) was 30.1 µM (inactive). For the same compound, the GI50 (M14) was 18.7 µM (inactive), the GI50 (NCI-H23) was 30.3 µM (inactive) and the GI50 (XF498) was 18.5 µM (inactive). The GI50 (RXF 631) was 14.3 µM (inactive), the GI50 (IGROV-1) was 27.4 µM (inactive) and the GI50 (DLD-1) was 15.6 µM (inactive). For the same compound, the GI50 (786-0) was 11.4 µM (inactive), the GI50 (OVCAR-4) was 24.5 µM (inactive) and the GI50 (SW-620) was 17.3 µM (inactive). The GI50 (HOP-62) was 24.7 µM (inactive), the GI50 (Malme-3M) was > 10 µM (inactive) and the GI50 (HCT-116) was 4.06 µM (inactive). For the same compound, the GI50 (HCT-15) was 13.1 µM, the GI50 (DMS-114) was 18.6 µM (inactive) and the GI50 (HOP-18) was < 0.01 µM (active). The GI50 (HCC 2998) was > 10 µM (inactive), the GI50 (UACC-257) was 10.7 µM (inactive) and the GI50 (U-251) was 9.29 µM (inactive). The GI50 (DMS-273) was 7.33 µM (inactive), the GI50 (SR) was 16.3 µM (inactive) and the GI50 (SK-MEL-2) was 15.7 µM (inactive). For the same compound, the GI50 (OVCAR-8) was 15 µM (inactive), the GI50 (A549) was 34.6 µM (inactive) and the GI50 (SF-268) was 24.2 µM (inactive). The GI50 (UO-31) was 12.2 µM (inactive), the GI50 (SN12C) was 15.3 µM (inactive) and the GI50 (HL-60) was 11.3 µM (inactive). For the same compound, the GI50 (NCI-H522) was 17 µM (inactive), the GI50 (K562) was 6.43 µM (inactive) and the GI50 (RXF 393) was 14 µM (inactive). For the same compound, the GI50 (KM12) was 12.6 µM (inactive), the GI50 (MOLT-4) was 19.9 µM (inactive) and the GI50 (SK-MEL-28) was 19.5 µM (inactive). For the same compound, the GI50 (SK-MEL-5) was 17.4 µM (inactive), the GI50 (UACC-62) was 16.4 µM (inactive) and the GI50 (SNB-19) was 17.5 µM (inactive). For the same compound, the GI50 (SK-OV-3) was 45.9 µM (inactive), the GI50 (M19-MEL) was 17.1 µM (inactive) and the GI50 (COLO 205) was 17.8 µM (inactive). The GI50 (HT-29) was 16.3 µM (inactive), the GI50 (A498) was 13.3 µM (inactive) and the GI50 (LXFL 529) was 16 µM (inactive). For the same compound, the GI50 (RPMI-8226) was 3.52 µM (inactive) and the GI50 (TK-10) was 17 µM (inactive).
